The record followed here is ChEMBL document CHEMBL5137058, “Therapeutic Strategies to Target the Androgen Receptor” (J Med Chem, 2022).

Data set [1] has as its target T1, Androgen receptor (Homo sapiens, UniProt P10275).
T1 sequence (P10275 whole entry): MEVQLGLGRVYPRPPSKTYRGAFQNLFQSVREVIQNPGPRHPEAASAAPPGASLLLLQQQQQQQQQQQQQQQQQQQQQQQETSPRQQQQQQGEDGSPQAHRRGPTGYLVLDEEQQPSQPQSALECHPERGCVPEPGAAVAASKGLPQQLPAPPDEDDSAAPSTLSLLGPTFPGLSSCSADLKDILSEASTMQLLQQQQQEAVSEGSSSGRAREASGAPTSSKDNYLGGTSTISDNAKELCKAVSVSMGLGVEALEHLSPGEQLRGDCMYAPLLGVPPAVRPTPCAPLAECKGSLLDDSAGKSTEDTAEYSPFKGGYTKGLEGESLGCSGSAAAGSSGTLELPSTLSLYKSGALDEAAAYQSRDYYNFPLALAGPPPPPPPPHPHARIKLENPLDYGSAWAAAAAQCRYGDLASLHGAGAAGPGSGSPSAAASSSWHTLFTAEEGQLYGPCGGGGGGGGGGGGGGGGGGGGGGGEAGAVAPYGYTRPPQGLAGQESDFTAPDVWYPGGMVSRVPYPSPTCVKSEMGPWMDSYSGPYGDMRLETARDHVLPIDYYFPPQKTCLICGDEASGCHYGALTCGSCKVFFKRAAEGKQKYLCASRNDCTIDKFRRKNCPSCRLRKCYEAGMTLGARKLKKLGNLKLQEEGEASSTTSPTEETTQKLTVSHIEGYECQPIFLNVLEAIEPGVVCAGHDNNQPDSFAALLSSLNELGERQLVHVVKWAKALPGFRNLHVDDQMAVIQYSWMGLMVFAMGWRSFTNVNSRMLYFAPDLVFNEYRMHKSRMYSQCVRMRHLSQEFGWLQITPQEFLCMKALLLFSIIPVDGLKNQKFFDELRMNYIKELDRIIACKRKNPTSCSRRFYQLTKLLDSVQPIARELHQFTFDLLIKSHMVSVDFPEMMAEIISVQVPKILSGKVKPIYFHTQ
The data set can be described thus: Partial agonist activity at human Androgen receptor.

The target of data set [2] is T1, Androgen receptor. The data set can be described thus: Binding affinity to Androgen receptor (unknown origin). The following applies: read-out: IC50.
In the next data set the test system is Rattus norvegicus. Kind of data set: Anti-androgenic activity in testosterone-treated castrated rat assessed as reduction in prostate weight at 2 mg administered orally per day for 5 days. Further details: Activity: scale not given: the % may be the effect or the level left. The data set is classed as functional. The following applies: route po, time 5 day; for Activity: at 2 mg.

The subject of another data set is LNCaP. The data set can be described thus: Antiproliferative activity against human LNCaP cells. The data set is classed as functional, cell-based.
Data set [3] addresses GABA-A receptor; anion channel. Kind of data set: Binding affinity to GABA A receptor (unknown origin). The data set is classed as protein-complex assay, Homo sapiens.
Data set [4] has as its target T1, Androgen receptor. Kind of data set: Displacement of [3H]DHT from Androgen receptor expressed in human MDA-MB-453 cells. The data set is classed as cell-based. On the technique in general: Loss of bound radioactivity is the signal in a displacement assay; it reports binding, not function.
The target in data set [5] is T1, Androgen receptor. Kind of data set: Antagonist activity at Androgen receptor in human MDA-MB-453 cells measured by SEAP reporter gene assay. The data set is classed as cell-based. For orientation: Reporter assays use an easily measured gene product as a stand-in for the process of interest.
Data set [6] in a line: In vivo antagonist activity at Androgen receptor assessed as reduction in wax ester in golden hamster ear model. The data set is classed as functional, Cricetinae. On the set-up: concentration or dose not given beside the values.
Data set [7] has as its target T1, Androgen receptor. The data set can be described thus: Displacement of [3H]methyltrienolone from Androgen receptor expressed in human MDA-MB-453 cells. The data set is classed as cell-based.
A further data set concerns SC-3. Kind of data set: Antiproliferative activity against mouse SC-3 cells. The data set is classed as functional, cell-based.
The target of data set [8] is T1, Androgen receptor. Kind of data set: Agonist activity at human Androgen receptor expressed in human MDA-MB-453 cells cotransfected with MMTV-Luc assessed as transactivation modulation of AR measured by luciferase reporter assay. The data set is classed as cell-based.
The target in data set [9] is T2, Androgen receptor (Homo sapiens) (UniProt P10275).
T2 sequence (whole entry): T1 sequence (P10275 whole entry)
The data set can be described thus: Agonist activity at human Androgen receptor expressed in human MDA-MB-453 cells cotransfected with MMTV-Luc assessed as transactivation modulation of AR measured by luciferase reporter assay relative to control. The data set is classed as cell-based. The following applies: filed as agonist.

In data set [10] the target is T1, Androgen receptor. The data set can be described thus: Binding affinity to human Androgen receptor.
For data set [11], the target named is T1, Androgen receptor. The data set can be described thus: Agonist activity to human Androgen receptor in African green monkey COS-7 cells measured by luciferase reporter assay. The data set is classed as cell-based.
Data set [12] has as its target T1, Androgen receptor. Kind of data set: Antagonist activity at Androgen receptor in human LNCaP cells measured by SEAP reporter gene assay. The data set is classed as cell-based.
The target of data set [13] is Androgen receptor (Mus musculus, UniProt P19091). Kind of data set: Agonist activity at Androgen receptor (unknown origin) transfected in mouse C2C12 cells measured by luciferase reporter assay. The data set is classed as cell-based.
Sequence of Androgen receptor (Mus musculus, UniProt P19091) (P19091 whole entry): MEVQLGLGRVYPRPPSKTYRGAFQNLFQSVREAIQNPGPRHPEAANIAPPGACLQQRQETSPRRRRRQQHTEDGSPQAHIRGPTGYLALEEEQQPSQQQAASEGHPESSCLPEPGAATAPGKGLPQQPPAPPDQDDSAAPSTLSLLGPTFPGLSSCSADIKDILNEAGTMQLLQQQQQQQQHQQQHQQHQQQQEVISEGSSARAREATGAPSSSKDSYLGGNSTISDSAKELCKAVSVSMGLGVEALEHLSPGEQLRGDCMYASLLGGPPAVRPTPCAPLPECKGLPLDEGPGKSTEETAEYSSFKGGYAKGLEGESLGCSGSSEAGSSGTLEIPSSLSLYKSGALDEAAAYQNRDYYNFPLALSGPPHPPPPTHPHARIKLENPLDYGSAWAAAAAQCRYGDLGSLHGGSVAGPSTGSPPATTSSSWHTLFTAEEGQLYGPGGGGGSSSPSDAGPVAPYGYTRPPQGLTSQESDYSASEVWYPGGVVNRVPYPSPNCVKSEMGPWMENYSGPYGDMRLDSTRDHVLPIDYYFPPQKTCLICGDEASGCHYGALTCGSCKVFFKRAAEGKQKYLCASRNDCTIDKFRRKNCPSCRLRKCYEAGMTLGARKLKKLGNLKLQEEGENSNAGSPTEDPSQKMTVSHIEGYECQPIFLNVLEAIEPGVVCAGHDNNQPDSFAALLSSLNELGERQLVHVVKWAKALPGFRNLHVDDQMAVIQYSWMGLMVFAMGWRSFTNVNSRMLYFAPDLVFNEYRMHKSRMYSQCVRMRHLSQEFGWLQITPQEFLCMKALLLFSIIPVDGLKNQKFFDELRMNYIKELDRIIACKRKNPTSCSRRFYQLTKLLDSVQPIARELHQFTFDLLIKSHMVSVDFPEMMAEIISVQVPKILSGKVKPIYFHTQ
For data set [14], the target named is T1, Androgen receptor. The data set can be described thus: Antagonist activity at Androgen receptor in human MDA-kb2 cells. The data set is classed as cell-based.
Data set [15] can be described thus: Antiproliferative activity against refractory human prostate cancer cells. The data set is classed as functional, cell-based. The following applies: Prostate tumor cell line.
Data set [16] is described as follows: Oral bioavailability in mouse. The following applies: in vivo. The data set is classed as ADME, organism-based.
The target in data set [17] is T3, Protein cereblon/Androgen receptor/Cullin-4A (Homo sapiens, UniProt P10275+Q96SW2+Q13619). The data set can be described thus: Protac activity at CRBN/Cullin 4A/Androgen receptor in human VCaP cells assessed as Androgen receptor degradation. The data set is classed as cell-based.
T3 sequence (Q96SW2 whole entry, one chain of several): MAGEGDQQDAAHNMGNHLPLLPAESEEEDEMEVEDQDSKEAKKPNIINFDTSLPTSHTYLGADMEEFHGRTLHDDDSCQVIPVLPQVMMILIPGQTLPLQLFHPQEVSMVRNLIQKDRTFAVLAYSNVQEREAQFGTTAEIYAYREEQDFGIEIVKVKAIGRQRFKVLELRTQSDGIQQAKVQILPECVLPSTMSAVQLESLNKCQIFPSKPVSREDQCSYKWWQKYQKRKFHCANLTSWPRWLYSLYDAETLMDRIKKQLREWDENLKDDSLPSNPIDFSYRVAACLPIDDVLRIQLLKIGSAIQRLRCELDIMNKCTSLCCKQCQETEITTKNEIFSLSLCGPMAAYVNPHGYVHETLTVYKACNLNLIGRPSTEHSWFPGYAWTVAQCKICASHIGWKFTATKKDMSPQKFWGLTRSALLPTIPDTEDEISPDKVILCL
T3 sequence (Q13619 whole entry, one chain of several): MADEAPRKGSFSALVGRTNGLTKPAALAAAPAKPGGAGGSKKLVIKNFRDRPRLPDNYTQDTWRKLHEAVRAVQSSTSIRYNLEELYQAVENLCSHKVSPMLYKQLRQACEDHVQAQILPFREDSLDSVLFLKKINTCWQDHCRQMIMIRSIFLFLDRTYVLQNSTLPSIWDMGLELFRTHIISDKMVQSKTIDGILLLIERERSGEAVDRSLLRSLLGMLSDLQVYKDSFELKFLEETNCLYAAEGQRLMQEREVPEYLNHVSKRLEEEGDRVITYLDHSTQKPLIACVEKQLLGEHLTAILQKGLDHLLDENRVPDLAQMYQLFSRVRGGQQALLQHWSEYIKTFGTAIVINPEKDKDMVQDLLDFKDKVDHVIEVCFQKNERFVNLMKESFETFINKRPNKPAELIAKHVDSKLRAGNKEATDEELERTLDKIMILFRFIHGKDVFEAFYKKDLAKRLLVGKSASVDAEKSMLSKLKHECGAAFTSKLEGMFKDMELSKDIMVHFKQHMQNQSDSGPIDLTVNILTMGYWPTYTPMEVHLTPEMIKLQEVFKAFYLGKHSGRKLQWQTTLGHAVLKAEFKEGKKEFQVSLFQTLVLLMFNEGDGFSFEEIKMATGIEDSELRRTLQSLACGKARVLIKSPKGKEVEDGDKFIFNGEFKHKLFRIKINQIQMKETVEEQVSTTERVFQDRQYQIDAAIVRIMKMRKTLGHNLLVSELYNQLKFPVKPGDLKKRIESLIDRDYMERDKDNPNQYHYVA
Data set [18] addresses T3, Protein cereblon/Androgen receptor/Cullin-4A. Kind of data set: Protac activity at CRBN/Cullin 4A/Androgen receptor in human LNCaP cells assessed as Androgen receptor degradation. The data set is classed as cell-based.

Usually IC50 stands for the point on the concentration scale where inhibition reaches its midpoint. The compound `C[C@@]1(c2ccc(O)cc2)NC(=O)N(c2ccc(C#N)c(C(F)(F)F)c2)C1=O` came in with an IC50 at Androgen receptor [1] of 0.9 nM.

As for `N#CCC(O)(c1nc2cc(Cl)c(Cl)cc2[nH]1)C(F)(F)F` (centres undefined), the IC50 on Androgen receptor [2] turned out to be 2 nM.

With `Cc1c(C(C)(O)C(F)(F)F)[nH]c2cc(C(F)(F)F)c(C#N)cc12` (centres undefined), in the data set with Rattus norvegicus, the ID50 is listed as 0.13 mg/day and the Activity was determined as 80%.

For `CNC(=O)c1ccc(N2C(=S)N(c3ccc(C#N)c(C(F)(F)F)c3)C(=O)C2(C)C)cc1F` [ENZALUTAMIDE], the IC50 is 36 nM in the data set on LNCaP and 3000 nM in data set [3].

One may read the Ki as the equilibrium dissociation constant of an inhibitor or competing ligand from its target. At Androgen receptor [4], `C[C@@]12O[C@@](C)(C[C@H]1O)[C@@H]1C(=O)N(c3ccc(C#N)c(I)c3)C(=O)[C@@H]12` had a Ki of 2.4 nM. This compound gave a half-inhibitory concentration (IC50) against Androgen receptor [5] of 19 nM.

As for `N#Cc1ccc(O[C@@H]2CCCC[C@H]2C#N)cc1C(F)(F)F`, the Activity in data set [6] amounted to 64%.

In the case of `CN1C(=O)C(F)=C[C@]2(C)[C@H]3CC[C@]4(C)[C@@H](C(=O)NCc5nc6cccnc6[nH]5)CC[C@H]4[C@@H]3CC[C@@H]12` [MK-0773], the half-inhibitory concentration (IC50) at Androgen receptor [7] came to 6.6 nM.

For `O=c1[nH]nc(Cc2c(Cl)cccc2Cl)c2ccccc12`, the figures for the IC50 in the data set with LNCaP and with SC-3 were 560 nM and 180 nM, respectively.

What is called EC50 is the concentration that produces a half-maximal response. In turn, `CN1C(=O)C(F)=C[C@]2(C)[C@H]3CC[C@]4(C)[C@@H](O)/C(=C/c5cncnc5)C[C@H]4[C@@H]3CC[C@@H]12` yielded an IC50 on Androgen receptor [7] of 59 nM. Besides, on Androgen receptor [8], the EC50 worked out at 17 nM. Further, in data set [9], the Activity was 141%.

Consider `Cc1ccccc1Oc1ccc(C#N)c(Cl)c1`, for which the Activity in [6] was more than 87%.

In turn, `C[C@H]1[C@@H](O)CCN1c1ccc(C#N)c2ccccc12` registered a 50% inhibitory concentration (IC50) at Androgen receptor [10] of 2.4 nM. The EC50 on Androgen receptor [11] was found to be 0.32 nM.

For the compound `CC(O)(CS(=O)(=O)c1ccc(F)cc1)C(=O)Nc1ccc(C#N)c(C(F)(F)F)c1` (centres undefined) [BICALUTAMIDE], half-maximal inhibition with LNCaP (IC50) required 160 nM.

As for `Fc1ccc(Cn2c(CC(F)(F)F)nc3cc(Cl)c(Cl)cc32)cc1`, in the data set with Rattus norvegicus, the ID50 is listed as 0.13 mg/day and the Activity turned out to be 84%.

Regarding `N#Cc1ccc(N2C(=O)[C@H]3[C@@H]4C[C@@H](CN4C(=O)Oc4ccc(F)cc4)N3C2=O)cc1C(F)(F)F`, the inhibition constant Ki at Androgen receptor [4] stood at 18 nM. The IC50 stood at 350 nM against Androgen receptor [5] and 3920 nM on Androgen receptor [12].

At Androgen receptor [13], `Cc1c(N2C(=O)[C@@H]3[C@H](O)CCN3C2=O)ccc(C#N)c1Cl` had an EC50 of 2.3 nM.

In the case of `N#Cc1ccc([C@H]2CCCC[C@H]2O)cc1C(F)(F)F`, the IC50 on Androgen receptor [10] is 26 nM; on Androgen receptor [14], 90 nM. Besides, in data set [6], the Activity was 85%.

As to `CC(O)(C[S+]([O-])c1ccc(Cl)c(Cl)c1)c1cc2cc(Cl)c(C(F)(F)F)cc2[nH]1` (centres undefined), the IC50 at Androgen receptor [2] came to 100 nM.

`COc1cc(N2C(=O)C(C)(C)c3cc(-c4cccnc4OC)ccc32)ccc1C#N` displayed a 50% inhibitory concentration (IC50) in data set [15] of 79.6 nM.

As a reminder, the bioavailability is dose-corrected exposure relative to a reference, in per cent. As a reminder, the DC50 is the concentration at which degradation of the target reaches its halfway point. Consider `CN(c1ccc(C#N)c(Cl)c1)[C@H]1CC[C@H](NC(=O)c2ccc(N3CCN(C4CN(c5ccc6c(c5)C(=O)N(C5CCC(=O)NC5=O)C6=O)C4)CC3)cc2)CC1` (some centres undefined), for which the bioavailability in data set [16] was determined as 51%. Also, the 50% degradation concentration (DC50) in [17] and in data set [18] was less than 0.1 nM throughout.

Turning to `CNC(=O)c1ccc(N2C(=S)N(c3cnc(C#N)c(C(F)(F)F)c3)C(=O)C23CCC3)cc1F` [APALUTAMIDE], the IC50 in data set [3] worked out at 3000 nM.

Take `CCCCc1ccc(OC(=O)N2C[C@@H]3C[C@H]2[C@@H]2C(=O)N(c4ccc([N+](=O)[O-])c5ccccc45)C(=O)N32)cc1`: the Ki on Androgen receptor [4] is 73 nM. Besides, the IC50 against Androgen receptor [5] came out at 60 nM; on Androgen receptor [12], 4750 nM.

As to `N#Cc1ccc(-c2ccccc2O)cc1C(F)(F)F`, 0.2 nM corresponded to half-maximal inhibition at Androgen receptor [14] (IC50). In addition, in data set [6], the Activity turned out to be 86%.
